According to US20260083126A1, “ANTIMICROBIAL COMPOSITIONS” (AHV International B.V., priority 2022, published 2026):
Converted amounts (≈) assume the structure as drawn. “Also recorded” adds a separate entry of the source.

Tests used:
[1] = tested on: Micrococcus luteus ATCC 4698; experiment: MIC assay; type: cell-based; details: Example 2a, n = 3, ATCC 4698; for MIC50 / MIC90: Micrococcus luteus, ATCC4698
Protocol: The exact weighed amount was noted and the volume of solvent to reach a 80 mM dilution calculated. Half of the volume was added first, by adding Tween 80 and let stand for 5 minutes. In a second step, the other half of the volume DMSO was added and resuspended to help the dilution process. The closed tube was inverted 5-10 times and then vortexed very thoroughly for at least 30 seconds. If after this procedure crystals were still visible, the tube was placed in a shaker at 37° C. at 150 rpm for at least 30 minutes (it is indicated if the dissolution period was longer than 2 h). […] In case of Bis(4-Chlorophenyl) thiosulfonate, a lower concentrated stock solution of 2 mM needed to be prepared. For that, the required amount of compound was weighed in and 2% v/v Tween80 and 2% v/v DMSO of the end volume of the stock solution was added to the substance. This mix was heated in a water bath set to 40° C. and occasionally shaken. When the whole amount of the substance reached dissolution, the volume was filled up with growth medium until the end volume. This 2 mM stock solution of Bis(4-Chlorophenyl) thiosulfonate was used in the MIC plate and diluted two-fold, resulting in a testing range of Bis(4-Chlorophenyl) thiosulfonate from 1 mM to 0.002 mM.
The microorganisms as indicated in Table 4 were used to inoculate a tryptic soy agar (TSA) plate and incubated overnight at 37° C. After incubation 3-5 well-isolated colonies with the same morphology were selected from the TSA plate and resuspended in 2 mL 0.9% saline solution with 3-6 glass beads and vortexed. The optical density at 600 nm (OD600) of the bacterial suspension was measured with a spectrophotometer (Evolution™ 201/220 UV-Visible Spectrophotometer, Thermo Fisher Scientific) and diluted to an OD600 of 0.0008, which resembles 10^6 CFU/mL.
The MIC assay was performed in a flat-bottom 96-microtiter plate. 50 μL of MHB-II was added into columns 2-11, and 100 μL to column 12 for sterility control. 100 μL of the 8 mM test compound solution (method 1) was added to column 1. A two-fold dilution series of the solution in MHB-II was achieved by resuspending 50 μL of the 8 mM solution from column 1 to column 2. This step was repeated until column 10. The respective concentration of Tween 80 and DMSO in column 1 was 2.5%, which is two-fold diluted throughout the plate. 50 μL of the bacterial suspension was added to column 1-11. The microtiter plates were sealed with adhesive polyethylene film for sealing microplates (Diversified Biotech) and incubated for 24 h at 37° C. After incubation the OD was measured at 600 nm with the Varioskan (Thermo Fisher Scientific). The minimal concentration which causes reduction of final OD600 of the bacterial culture by 50% (MIC50) and by 90% (MIC90) was calculated after normalization of the obtained OD values to the growth control in column 11. This assay was repeated three times in three independent experiments.

Caco-2 cell line = experiment: MTT cytotoxicity test; type: cell-based; details: 24 h, 7.8 μM to 1 mM, emulsified with Tween-80/DMSO
Protocol: Scope. As standard tests cytotoxicity is measured on Caco-2 and HepG2 cell lines. Cytotoxicity of mentioned cell lines was determined by measuring the amount of converted MTT (3-(4,5-dimethylthiazol-2-yl)-2,5-diphenyltetrazolium bromide) by a mitochondrial dehydrogenase after exposure of various concentrations of the antimicrobial compounds. In living cells the dehydrogenase converts the soluble MTT into water insoluble purple formazan crystals that can not pass the cell membrane. The higher the metabolic activity of the cell, the more purple crystals are formed, the lower the cytotoxicity of the antimicrobial compound. Experimental design. The Caco-2 cell line as colorectal adenocarcinoma cells and HepG2 (derived from human liver) were used for the current experiments and were obtained from the ATCC. The intestinal Caco-2 cell line was cultured in 75-cm^2 culture flasks. Minimum Essential Medium (MEM) (Catalog Number(s) 31095029, ThermoFischer Scientific), supplemented with 10% (v/v) inactivated fetal calf serum (FCS) (Gibco), 1% (v/v) nonessential amino acids (Gibco), 1% sodium pyruvate (Gibco) and penicillin (100 U/ml)/streptomycin (100 μg/ml.) was utilized as medium for the growing cells. The cells were preserved in an incubator to provide them with the optimum moisture and temperature (humidified atmosphere of 95% air and 5% CO2 at 37° C. for 72 hours). The Caco-2 cells were seeded in flat bottom 96-well plates for performing the experiments. The cells were grown on flat bottom 96-well plates to the appropriate density to run the experiments. The cells were exposed to increasing concentrations of emulsified test compound (8 concentration, ranging from 7.8 μM to 1 mM) in standard culture medium (Catalogue 31331028, ThemoFischer Scientific) for each cell line. It should be noted that all the experiments were conducted in FBS (Catalog A3840101, ThermoFischer Scientific) and antibiotic free medium. The concentration of Tween-80 and DMSO that is present in the assay to emulsify the antimicrobial compound was in the range from 0,007% to 1%. The cells were incubated for 24 h with emulsified test compound and the assay was performed based on the standard protocol. By the end of the experiment the medium (cell supernatants) was removed and the lysis buffer (0.04 M hydrochloric acid, in propan-2-ol) was added to each well to solubilize the purple formazan crystals. As the final step, the absorbance was recorded by a multi-well reader at 595 nm. […] The results from all experiments were expressed as mean #standard error of the mean (SEM) conducted in triplicate (three wells/condition) of three independent experiments. Differences between results were statistically evaluated using One-way ANOVA with Bonferroni post-hoc test.

SMILES	MIC50 Micrococcus luteus (+) [1] [mM]	MIC90 Micrococcus luteus (+) [1] [mM]	cytotoxic effect on Caco-2 cells (MTT) (Caco-2 cell line)	MIC50 [1] [µM]	MIC90 [1] [µM]
[O-][S+](Sc1ccc(F)cc1)c1ccc(F)cc1 (centres unmarked) [Bis (4-fluorophenyl) thiosulfinate, Bis(4-fluorophenyl) thiosulfinate]	2.00 (≈ 541 µg/mL)	3.33 (≈ 900 µg/mL)			
CC(C)SS(=O)(=O)C(C)C [Di-isopropyl thiosulfonate]			cytotoxic effects; also recorded: cytotoxicity is lowest		
Clc1ccc(SSc2ccc(Cl)cc2)cc1 [Bis (4-chlorophenyl) disulfide, Bis(4-chlorophenyl) disulfide]			cytotoxic effects	50 (≈ 14.4 µg/mL)	250 (≈ 71.8 µg/mL)
O=S(=O)(Sc1ccc(Cl)cc1)c1ccc(Cl)cc1 [Bis (4-chlorophenyl) thiosulfonate, Bis(4-chlorophenyl) thiosulfonate]	0.21	0.75	cytotoxic effects		
Fc1ccc(SSc2ccc(F)cc2)cc1 [Bis (4-fluorophenyl) disulfide, Bis(4-fluorophenyl) disulfide]			cytotoxic effects	750 (≈ 191 µg/mL)	2000 (≈ 509 µg/mL)
O=S(=O)(Sc1ccc(F)cc1)c1ccc(F)cc1 [Bis (4-fluorophenyl) thiosulfonate, Bis(4-fluorophenyl) thiosulfonate]	1.50	2.00			
